Measured values reported in PMC10147923, “Pain-causing stinging nettle toxins target TMEM233 to modulate NaV1.7 function” (Nature Communications, 2023).
Where “and” joins values, the source holds several entries; their conditions need not be identical. Equal entries are not always repeated. Where two headings read alike, the source gives them in different places. Positions of bridges follow the written chain, without caps; N, C: chain ends. Residues, ends and D or L forms follow the SMILES beside them.

How the values were obtained:
[1] = test system: DRG neurons from wild-type C57BL/6 mice; assay: Calcium imaging, wild-type DRG neurons; format: cell-based, mouse
Method: DRG from all spinal levels were isolated from male and female mice (wild-type C57BL/6 J, Tmem233^Cre/Cre, NaV1.8^Cre/Cre, NaV1.9^−/− or littermate controls) as previously described[36],[38],[39]. For Ca^2+ imaging experiments, DRG neurons were dissociated following incubation with 1% collagenase type IV (Worthington, New Jersey, USA) for 1.5 h (37 °C, 5% CO2) and 2.5% trypsin (Sigma-Aldrich, Montana, USA) for 15 min and resuspended in Dulbecco’s modified Eagle’s medium (DMEM) (Sigma-Aldrich, New South Wales, Australia) supplemented with 10% fetal bovine serum (FBS) (Thermofisher, Massachusetts, USA) and penicillin/streptomycin (Thermofisher, Massachusetts, USA). Following plating in 96-well poly-D-lysine–coated culture plates, isolated neurons were incubated for 24 h at 37 °C with 5% CO2 prior to imaging.
Dissociated DRG neurons from Tmem233^Cre/Cre and C57BL/6 mice were plated on PDL-coated 96-well black-walled imaging plates and loaded with Fluo-4 AM calcium indicator (5 μM) (Invitrogen, Massachusetts, USA) for 1 h in culture medium. Cells were washed with Hanks’ balanced salt solution containing 20 mM HEPES and then transferred to the recording chamber of a Nikon Ti-E Deconvolution inverted microscope equipped with a Lumencor Spectra LED light source. Fluorescence images (excitation, 485 nm; emission, 521 nm) were acquired at 1 frame per second using a ×20 objective. Following the recording of baseline fluorescence (20 s), cells were consecutively exposed to buffer control (0.1% BSA, t = 30 s), ExTxA (10 nM, t = 60 s), and 30 mM KCl (30 mM, t = 210 s). […] Cells responding to buffer control were excluded from analysis.

[2] = test system: total NaV current in wild-type DRG neurons; assay: Persistent NaV current, wild-type littermate DRG neurons; format: cell-based, mouse; details: ExTxA 30 nM; wildtype; mean ± SEM, n = 6
[3] = test system: Cos-1 cells; assay: Currents in untransfected Cos-1 cells; format: cell-based; details: ExTxA 1 µM, mean ± SEM, n = 6
Method: Whole-cell patch clamp experiments involving HEK293, COS-1, CHO, ND7/23, F11, SH-SY5Y and TE-671 cells were performed on a QPatch II automated electrophysiology platform (Sophion Bioscience, Ballerup, Denmark) as previously described. Cells at approximately 70–80% confluency were harvested from T75 flasks using TrypLE Express at 37 °C for 2–5 min and resuspended in DMEM with 25 mM HEPES (Sigma-Aldrich, NSW, Australia), 100 U/mL Penicillin-Streptomycin (Gibco) and 40 µg/mL trypsin inhibitor from Glycine max (soybean) (Sigma Aldrich) prior to recovery on a QStirrer (Sophion) for 30 min. 16-channel patch plates with a patch hole diameter of 1 μm and resistance of 2 ± 0.02 MΩ were used. Cell positioning and sealing parameters were as follows: positioning pressure −60 mbar, minimum seal resistance 0.1 GΩ, holding potential −100 mV, holding pressure −20 mbar. Whole-cell currents were filtered at 5 kHz and acquired at 25 kHz. Series resistance compensation was used and set to 70%.

[4] = test system: hNaV1.7; format: cell-based, human
[5] = test system: hNaV1.7; assay: Persistent current, CHO hNaV1.7, no β subunit; format: cell-based, human; details: ExTxA 1 µM
[6] = test system: wild-type C57BL/6 mice; assay: Nocifensive behaviors after intraplantar injection, wild-type mice; format: in vivo, mouse; details: wt
Method: Nocifensive responses to intraplantar administration of ExTxA (5–10 nM) were assessed as previously described. In brief, ExTxA was diluted in sterile saline/0.1% BSA and administered by an intraplantar injection (40 μL) into a single hind paw of Tmem233^Cre/Cre, NaV1.7^Advill and wild-type littermate controls. Pain behaviors, consisting of paw licks or flinches, were counted from video recordings by a blinded investigator for up to 60 min following injection.

[7] = test system: hNaV1.6; assay: Persistent current, HEK293-hNaV1.6/β1; format: cell-based, human; details: ExTxA 1 µM; individual cells
[8] = test system: total and TTX-s NaV current in wild-type DRG neurons; assay: Persistent total NaV current, manual patch clamp, mouse DRG neurons; format: cell-based
[9] = test system: TE-671 cells
[10] = target: NaV1.7/TMEM233 (Homo sapiens, UniProt B4DJY2+Q15858); format: cell-based; details: extracellular ExTxA
Method: To determine recovery from fast inactivation, a 20 ms pulse to 0 mV from a holding potential of −90 mV was used to induce fast inactivation. A subsequent recovery period, ranging from 1 ms to 2216 ms in 50% increments at −90 mV, was followed by a last 20 ms test pulses to 0 mV to determine the time-dependence of recovery from fast inactivation. The proportion of available channels was determined by normalizing peak currents from the last to the first pulse. A two-phase exponential equation was fit to the normalized current, plotted as a function of time, to determine the time constants τ1 and τ2 of recovery from fast inactivation.

[11] = test system: hNaV1.3; assay: Persistent current, HEK293-hNaV1.3/β1; format: cell-based, human; details: ExTxA 1 µM
[12] = test system: hNaV1.8; assay: Persistent current, CHO-hNaV1.8/β3; format: cell-based, human; details: ExTxA 1 µM
[13] = test system: NaV currents in ND7/23 cells; assay: Persistent current, ND7/23 cells; format: cell-based; details: ExTxA 1 µM; individual cells
[14] = test system: TE-671 cells; details: ExTxA 1 µM + veratridine 5 µM + ouabain 20 nM

Compound: CC[C@H](C)[C@@H]1NC(=O)[C@H](CCCNC(=N)N)NC(=O)[C@H](Cc2ccccc2)NC(=O)[C@H](CC(C)C)NC(=O)[C@H](CO)NC(=O)[C@@H]2CSSC[C@@H]3NC(=O)[C@H]([C@@H](C)O)NC(=O)[C@H](CSSC[C@H](NC(=O)[C@H](CCCNC(=N)N)NC(=O)[C@@H]4CCCN4C(=O)[C@@H](N)CC(C)C)C(=O)N[C@@H](CC(=O)O)C(=O)N[C@@H](CO)C(=O)N4CCC[C@H]4C(=O)N[C@@H](Cc4ccccc4)C(=O)N2)NC(=O)[C@H](CCCCN)NC(=O)[C@H](CC(=O)O)NC(=O)CNC(=O)[C@H](CSSC[C@@H](C(=O)N[C@H](C(=O)N2CCC[C@H]2C(=O)N[C@@H](CC(=O)O)C(=O)N[C@H](C(=O)O)C(C)C)C(C)C)NC(=O)[C@H](CC(C)C)NC(=O)CNC(=O)[C@H](Cc2ccccc2)NC(=O)[C@H]([C@@H](C)CC)NC(=O)[C@@H]2CCCN2C(=O)[C@H](CC(C)C)NC(=O)[C@@H]2CCCN2C(=O)[C@H](C(C)C)NC3=O)NC(=O)[C@H](CC(C)C)NC(=O)CNC1=O [ExTxA, excelsatoxin A] (H-LPRCDSPFCSLFRIGLCGDKCTCVPLPIFGLCVPDV-OH; disulfide 4-21, 9-23, 17-32)
- ExTxA-induced DRG Ca2+ responses ([1]; ExTxA 10 nM, wt, Fluo-4, >1.5-fold increase, mean ± SEM, n = 10 wells): 53.20 ± 1.789 % neurons activated
- calcium imaging response (Fig. 3f) ([1]; WT, individual values, one line each (n = 10)): 51.5152 and 56.8182 and 58.0645 and 43.75 and 44.8276 and 50.7042 and 59.292 and 51.8519
- calcium imaging response (Fig. 3f), Mean ([1]; WT, mean, number of values 10, Std. Deviation 5.657, SEM 1.789): 53.2
- calcium imaging response (Fig. 3f), Median ([1]; WT, median, number of values 10): 53.9
- ExTxA-induced persistent current (I40ms/Ipeak; nA) in DRG neurons [2]: 0.573 ± 0.086
- ExTxA-induced persistent current [3]: -2.019 ± 5.908 pA
- persistent current, Predicted (LS) mean diff. [4]: -0.04169
- persistent current (I40 ms/Ipeak) ([4]; ExTxA 100 nM in ECS, mean ± SEM, n = 10): 0.04 ± 0.014
- persistent current (I40 ms/Ipeak) ([4]; ExTxA 100 nM in ICS, mean ± SEM, n = 10): -0.002 ± 0.004
- persistent current ([4]; ExTxA 1 µM, HEK NaV1.7/β1, individual cells): -10.167 pA and -21.3045 pA and 17.0051 pA and 11.4493 pA and -20.8771 pA and -5.293 pA and -9.443 pA and -10.0671 pA and 5.003 pA and -11.1496 pA and -2.37 pA
- persistent current (I40 ms/Ipeak) ([4]; ExTxA 1 µM, individual cells): -0.00096 and -0.00393 and -0.00509 and -0.00016 and 0.00507 and -0.00078 and -0.00158 and -0.00022 and -9.8e-6 and 0.000228 and 0.002683
- CHO cells persistent current (I40 ms) ([5]; hNaV1.7 alone, mean ± SEM, n = 6): 0.000 ± 0.002 nA
- Δ persistent current (I40 ms/Ipeak) in CHO hNaV1.7 ([5]; no β subunit, mean, n = 12): 0.001 ± 0.004 and 0.0009513
- cumulative flinches (60 min) ([6]; i.pl. ExTxA 10 nM, 40 μL, mean, n = 4): 319.3 ± 21.9 and 319.3
- cumulative flinches (60 min) ([6]; i.pl. ExTxA 10 nM, individual animals): 318 and 332 and 366 and 261
- ExTxA-induced pain behaviours (cumulative paw licks and flinches over 40 min) ([6]; i.pl. ExTxA 10 nM, mean ± SEM, n = 17): 234.2 ± 27.7
- nocifensive behaviors, 0-40 min combined (Fig. 3g) ([6]; 0-40 min, individual animals, one line each (n = 17)): 186 and 191 and 216 and 226 and 100 and 220 and 228 and 281 and 150 and 168 and 177 and 96 and 381 and 537 and 153
- nocifensive behaviors, 0-40 min combined, mean (Fig. 3g) ([6]; 0-40 min, mean, n = 17): 234.2
- persistent current (I40 ms/Ipeak) [7]: -0.07037 and 0.003531 and 0.01691 and 0.001263 and 0.000702 and -0.00068 and -0.03041 and 0.01768
- DRG total persistent NaV current (I40 ms/Ipeak) ([8]; ExTxA 100 nM in 0.1% BSA, depolarization to -20 mV from -90 mV, mean, n = 6): 0.513 ± 0.10 and 0.5133
- Mean Diff. of persistent current, Control vs. ExTxA ([8]; ExTxA 100 nM, Tukey's multiple comparisons): -0.4859
- DRG total persistent NaV current (I40 ms/Ipeak) ([8]; ExTxA 100 nM, individual cells, one line per cell): 0.842 and 0.3774 and 0.8283 and 0.3793 and 0.3284 and 0.3245
- toxicity to TE-671 cells, ExTxA alone ([9]; ExTxA 1 µM): did not cause visible toxicity
- toxicity to TE-671 cells, with veratridine and ouabain ([9]; ExTxA 1 µM + veratridine 5 µM + ouabain 20 nM): cell death
- time constants of recovery from inactivation [10]: a decrease in the time constants of recovery from inactivation
- persistent current (I40 ms/Ipeak) ([11]; individual cells): 0.0261 and 0.07967 and 0.01209 and 0.007119 and 0.06666 and 0.04746 and 0.006524 and 0.006085 and 0.07156 and 0.01737 and 0.02558 and -0.00907 and 0.002307 and 0.02027 (2×) and 0.01594 and 0.04935 and 0.06033 and 0.03164 and 0.000895 and 0.0334 and 0.008347 and 0.02877
- Δ persistent current (I40 ms/Ipeak; buffer cf. ExTxA) ([11]; mean): 0.0265 ± 0.0049 and 0.02645
- persistent current (I40 ms/Ipeak) ([12]; individual cells): 0.04156 and 0.003935 and 0.01946 and 0.03094 and 0.03913 and 0.02554
- Δ persistent current (I40 ms/Ipeak; buffer cf. ExTxA) ([12]; mean): 0.027 ± 0.0057 and 0.02676
- persistent current (I40 ms/Ipeak) [13]: 0.0148 and -0.04643 and -0.01725 and -0.02481 and 0.06313 and -0.01347 and 0.009823 and -0.02206 and -0.05173 and 0.0293 and -0.02358
- effect of gene knockdown on ExTxA cytotoxicity [14]: prevented by the knockdown of SCN9A (the gene encoding the NaV1.7 α subunit) as well as ten other genes (RNF121, GPAA1, PIGT, CRELD1, PIGK, STT3B, TMEM233, PIGS, MMGT1, and LMAN2L), and exacerbated by knockdown of SPAG5, TMEM161B and NEDD4L
